Measured values reported in patent US9970057B2, “Human invasion signature for prognosis of metastatic risk” (ALBERT EINSTEIN COLLEGE OF MEDICINE, INC., priority 2011, dated 2018).
Entries after “also recorded” stand apart in the source; their conditions may differ.

How the values were obtained:
[1] = tested on: MDA-MB-231 tumors and patient-derived HT17 and HT39 breast tumors; assay: in vivo invasion assay in tumor-bearing mice; parameters: species or system SCID mice; settings: injected intraperitoneally four hours prior to the experiments; EGF or FBS gradient; MDA-MB-231, HT17 and HT39 tumors; vs vehicle or control IgG
Procedure: (§1) SB431542 was used, a small molecule specific inhibitor of the TGFβ receptor (14,38), which was injected into the tumor-bearing mice prior to measurements of invasion and intravasation. Invasion was measured by count of the total cells that chemotax and invade in the primary tumor towards a gradient source (EGF or FBS) with the in vivo invasion assay. Intravasation and dissemination was measured by count of the circulating tumor cells in the total blood of tumorbearing mice.
(§2) The inhibitors SB431542 (a small molecule specific inhibitor of the TGFβ receptor), NSC87877 (a small molecule specific inhibitor of PTPN11) were used, and a neutralizing antibody specific to human IL8 for the experiments. Because the focus of the study is migration and invasion, a drug treatment of only 4 hours was given to the mice before experimental assays so that an acute effect on migration can be measured without long-term effects on tumor growth. Invasion was measured by count of the total cells that chemotax and invade in the primary tumor towards a gradient source (EGF or FBS) with the in viva invasion assay. Intravasation and hematogenous dissemination was measured by count of the circulating tumor cells (CTCs) in the blood of tumor-bearing mice. […] No significant difference in overall cell death was observed by histology in the treated tumors with the four-hour acute treatments. […] As a negative control, an inhibitor to a gene was used that was not identified by the HIS, namely, MYC, a known oncogene recently identified as a master regulator of expression in “poor-outcome” cancer signatures. […] Most of the published signatures to date are isolated from whole patient samples, and therefore represent “whole-picture” information about the metastatic process, a summary of invasion, dissemination, and growth/proliferation. […]
(§3) Animal Models. […] The mice were monitored for growth for up to 9 months, at which time if a tumor was not visible they were euthanized. For the tumors that grew, in vivo invasion was measured, and then the tumor was used to passage to new mice (surgical procedure same as before). […]

[2] = tested on: MDA-MB-231 tumors and patient-derived HT17 and HT39 breast tumors; assay: intravasation assay (circulating tumor cells in blood); type: in vivo, SCID mice; settings: injected intraperitoneally four hours prior to the experiments; MDA-MB-231, HT17 and HT39 tumors; vs vehicle or control IgG
Procedure: as §1, §2, §3

MDA-MB-231 xenograft = assay: BrdU incorporation (proliferation marker) in tumors; type: in vivo; settings: MDA-MB-231 xenograft mice, acute treatment
Text: FIG. 13A-13C. […] (15A). Schematic of experimental design for the inhibitor treatments. (15B). Representative images of immunostained tumors sections with BrdU antibody (black) and counterstained for nuclei (gray). (15C). Quantification of the above experiments is shown for 3 mice per group, and 10 random 40× images per mouse/tumor (excluding necrotic areas). Bars represent the average percentage of BrdU positive nuclei (black) over total (gray). Error bars: SEM. p-values by Student's t-test.
The inhibitors SB431542 (a small molecule specific inhibitor of the TGFβ receptor), NSC87877 (a small molecule specific inhibitor of PTPN11) were used, and a neutralizing antibody specific to human IL8 for the experiments. Because the focus of the study is migration and invasion, a drug treatment of only 4 hours was given to the mice before experimental assays so that an acute effect on migration can be measured without long-term effects on tumor growth. Invasion was measured by count of the total cells that chemotax and invade in the primary tumor towards a gradient source (EGF or FBS) with the in viva invasion assay. Intravasation and hematogenous dissemination was measured by count of the circulating tumor cells (CTCs) in the blood of tumor-bearing mice. […] No significant difference in overall cell death was observed by histology in the treated tumors with the four-hour acute treatments. […]

CCc1ccc(/C=C2/SC(=S)NC2=O)cc1 [10058-F4]
in vivo invasion (total cells that chemotax and invade in the primary tumor towards a gradient source, cells per microneedle) [1]: did not significantly alter
intravasation / tumor cell dissemination (circulating tumor cells in blood) [2]: did not significantly alter
BrdU incorporation (percentage of BrdU positive nuclei; proliferation in vivo) (MDA-MB-231 xenograft): significantly reduced; also recorded: significantly inhibits

O=S(=O)(O)c1ccc2cc(N=Nc3cc(S(=O)(=O)O)c4cccnc4c3O)ccc2c1 [NSC87877, 8-Hydroxy-7-[(6-sulfo-2-naphthyl)azo]-5-quinolinesulfonic acid]
in vivo invasion (total cells that chemotax and invade in the primary tumor towards a gradient source, cells per microneedle) [1]: significantly abrogated; also recorded: significantly inhibited
intravasation / tumor cell dissemination (circulating tumor cells in blood) [2]: significantly abrogated; also recorded: significantly inhibited

NC(=O)c1ccc(-c2nc(-c3ccc4c(c3)OCO4)c(-c3ccccn3)[nH]2)cc1 [SB431542, 4-[4-(1,3-benzodioxol-5-yl)-5-(2-pyridinyl)-1H-imidazol-2-yl]benzamide]
in vivo invasion (total cells that chemotax and invade in the primary tumor towards a gradient source, cells per microneedle) [1]: effectively abrogate; also recorded: significantly inhibited
intravasation / tumor cell dissemination (circulating tumor cells in blood) [2]: effectively abrogate; also recorded: significantly inhibited
